Data reported in patent US20250228958A1, “TSP1 INHIBITOR” (Daiichi Sankyo Company, Limited, priority 2022, published 2025).
“Also recorded” adds a separate entry of the source. Positions of bridges follow the written chain, without caps; N, C: chain ends. Non-standard residues stand in square brackets, D forms with d. Residues, ends and D or L forms follow the SMILES beside them. Chains are numbered I, II in the order given. No end group written: not given here. *: point of attachment. X1 = COCCOCCOCCOCCOCCOCCOCCOCCOCCOCCOCC(=O)N[C@@H](CCCCN*)C(=O)NCCOCCOCCOCCOCCOCCOCCOCCOCCOCCOCCOCCOCCC(=O)NCCOCCOCCOCCOCCOCCOCCOCCOCCOCCOCCOCCOCCC(=O)N[C@@H](CCCCNC(=O)CCN1C(=O)CC(C)C1=O)C(N)=O; maleimide = maleimide-group-derived moiety in the linking group, forming a thioether bond with the thiol of a cysteine residue of the carrier molecule; KPEG = (2S)-6-amino-2-[[2-(methoxy-oligo(ethoxy))acetyl]amino]hexanoic acid (Lys with N-alpha methoxy-PEG acetyl); 2Nal = N[C@@H](Cc1ccc2ccccc2c1)C(=O)O; Gly(cPent) = N[C@H](C(=O)O)C1CCCC1; Agb = N=C(N)NCC[C@H](N)C(=O)O; Tle = CC(C)(C)[C@H](N)C(=O)O; hCys = N[C@@H](CCS)C(=O)O; P12P = not defined here

Assays:
[1] = test system: C57BL/6 mice, ischemic limb blood flow; assay: Blood flow improvement measurement tests (femoral artery/vein ligation and excision, laser Doppler); format: in vivo, mouse; conditions: for blood flow AUC, % of vehicle group mean: blood flow AUC from beginning to end of measurement, ratio to vehicle-treated group mean; for %, ischemia/nonischemia (blood flow on the last day of measurement): mean ± standard error, ratio of ischemic limb flow to non-ischemic limb flow
Text: Six to seven-week-old C57BL/6 mice were purchased from Charles River Laboratories Japan Inc., and acclimated over six days by feeding with a FR-2 solid diet (produced by Funabashi Farm Co., Ltd.). The rearing facility switched between light and dark modes in a 12-hour cycle with light turning on at 7 a.m. and turning off at 7 p.m. Under isoflurane inhalation anaesthesia, the left thighs of the mice were dissected, and the superficial femoral arteries and veins (from just below the deep femoral arteries to the popliteal artery and vein) were ligated and excised. […] Five mice were used for each treatment group.
Blood flows were measured in ischemic (left) and non-ischemic (right) limbs using a laser Doppler perfusion imager (PeriScan PIM III, Moor LD12-HR). The improvement of blood flow was evaluated by the ratio of ischemic limb flow to non-ischemic limb flow. […] In addition, blood flow AUC was calculated to determine the ratio (%) of the mean value of the test substance-treated group to the mean value of the vehicle-treated group.

[2] = target: T1, human TSP1 (Homo sapiens, UniProt P07996); assay: Cell adhesion inhibition assay (HUVEC adhesion to TSP1-coated plate); format: cell-based; conditions: inhibition of HUVEC adhesion to human TSP1-coated plate
T1 construct: Thrombospondin human platelet (Calbiochem, 605225); purchased Calbiochem 605225; host or cells: human platelets (natural source, not recombinant)
T1 sequence (P07996 19-1170): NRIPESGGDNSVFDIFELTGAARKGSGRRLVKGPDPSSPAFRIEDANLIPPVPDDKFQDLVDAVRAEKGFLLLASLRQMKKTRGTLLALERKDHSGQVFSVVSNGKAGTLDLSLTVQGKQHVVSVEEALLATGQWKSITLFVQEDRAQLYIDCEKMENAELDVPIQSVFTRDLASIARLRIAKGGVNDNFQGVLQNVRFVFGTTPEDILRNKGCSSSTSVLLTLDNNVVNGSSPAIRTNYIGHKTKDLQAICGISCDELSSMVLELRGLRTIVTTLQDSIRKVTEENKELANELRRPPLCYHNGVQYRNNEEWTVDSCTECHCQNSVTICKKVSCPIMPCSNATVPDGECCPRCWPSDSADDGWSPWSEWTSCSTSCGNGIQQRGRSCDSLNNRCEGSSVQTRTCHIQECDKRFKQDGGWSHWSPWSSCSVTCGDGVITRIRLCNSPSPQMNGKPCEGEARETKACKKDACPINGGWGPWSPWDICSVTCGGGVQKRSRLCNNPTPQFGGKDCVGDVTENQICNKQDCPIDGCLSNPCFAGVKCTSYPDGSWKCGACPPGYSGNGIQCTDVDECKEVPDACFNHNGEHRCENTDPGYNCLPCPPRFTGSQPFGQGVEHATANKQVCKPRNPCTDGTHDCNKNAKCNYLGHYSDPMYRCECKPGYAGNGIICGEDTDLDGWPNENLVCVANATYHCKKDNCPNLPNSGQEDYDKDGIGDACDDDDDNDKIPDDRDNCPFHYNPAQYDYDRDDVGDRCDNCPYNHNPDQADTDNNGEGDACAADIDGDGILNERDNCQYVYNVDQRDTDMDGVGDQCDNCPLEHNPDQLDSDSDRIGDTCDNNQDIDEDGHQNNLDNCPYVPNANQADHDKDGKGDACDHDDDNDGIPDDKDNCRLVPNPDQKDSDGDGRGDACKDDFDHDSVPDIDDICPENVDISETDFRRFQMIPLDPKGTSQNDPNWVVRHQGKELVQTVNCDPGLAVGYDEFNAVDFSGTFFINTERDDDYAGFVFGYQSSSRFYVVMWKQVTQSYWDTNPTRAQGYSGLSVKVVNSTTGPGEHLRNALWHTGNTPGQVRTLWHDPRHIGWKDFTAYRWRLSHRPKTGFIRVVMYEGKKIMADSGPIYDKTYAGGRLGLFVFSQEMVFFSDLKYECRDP
Description: • 384-well Low Flange Black Flat Bottom Polystyrene Not Treated Microplate (Corning, 3573) • Proteosave(registered trademark) SS 15 mL (Sumitomo Bakelite, MS-52150) • Thrombospondin human platelet (Calbiochem, 605225) • HUVEC (KURABO, KE-4109P10) • EGM-2 MV (Lonza, CC-3202): for HUVEC passaging • Collagen coated dish (IWAKI, 4020-010): for HUVEC passaging • Lipidure(registered trademark)-BL802 (NOF Corporation), 5% solution • DMEM low glucose (GIBCO, 11054-020) • Bovine serum albumin (BSA) solution 30% (Sigma A9205) • CellTiter-Glo 2.0 (Promega G9242) […]
To maintain human umbilical vein endothelial cells, HUVECs, EGM2-MV and a collagen coated dish were used (the cells were ceased to be used after 10th or 11th passage since the cell proliferation rate declined at this stage). […] After removal of supernatant, the cells were resuspended in a DMEM buffer, counted for cell number, and diluted to 6000 cells/10 μL. […]
The culture medium was removed, and the plate was washed twice with 30 L/well of HBSS/Hepes 0.5% BSA. […] Fluorescence emission was detected using EnVision Xcite Multilabel Reader (produced by Perkin Elmer).
On the basis of the measured fluorescence values, the IC50 values (nM) of the different cyclic peptides and conjugates for inhibition of cell adhesion were calculated. […]

[3] = Serum stability test, mouse serum; format: in vitro ADME
Text: (§1) • Mouse serum (BALB/c CrSlc, male, Japan SLC, Inc.) • Monkey serum (cynomolgus monkey, male, Japan SLC, Inc.) • Human serum (Caucasian, pool of 5 males and 5 females, KAC Co., Ltd.) • Phenacetin (Nacalai Tesque, Inc.) • Niflumic acid (Nacalai Tesque, Inc.) • Furosemide (Nacalai Tesque, Inc.) • Acetonitrile (FUJIFILM Wako Pure Chemical Corporation) • Methanol (FUJIFILM Wako Pure Chemical Corporation) • Formic acid (FUJIFILM Wako Pure Chemical Corporation) • Dimethyl sulfoxide (DMSO) (FUJIFILM Wako Pure Chemical Corporation)
(§2) Solutions of Phenacetin, niflumic acid, and furosemide were prepared in DMSO at 10 μg/ml, 150 μg/ml, and 200 μg/ml, respectively. 10 μg/ml of phenacetin in DMSO, 150 μg/ml of niflumic acid in DMSO, and 200 μg/ml of furosemide in DMSO were dissolved in a mixture of […]/methanol (75/25, v/v) (final concentrations: phenacetin; 1 ng/mL, niflumic acid: 15 ng/mL, and furosemide 20 ng/mL), and formic acid was added to the prepared test solution (final concentration: 1% (v/v)) to prepare a formic acid-containing IS solution.
(§3) The test substances were prepared in DMSO to a concentration of 10 mM each. Further, the solution was diluted with DMSO to a concentration of 2 mM to make a test substance solution.
(§4) Each serum was preincubated at 37° C. for 5 minutes, and then the test substance solution was added to a final concentration of 20 μM to initiate the reaction. The test substance-added serum was incubated at 37° C. At 0 and 4 hours after the start of the reaction, a portion of the serum was taken out and added to the formic acid-containing IS solution to stop the reaction, which was used as a measurement sample.
(§5) The test substance and IS (phenacetin, niflumic acid, and furosemide) in the measurement sample were measured by LC-MS/MS, and the peak area ratio (IS ratio) of the test substance to IS (any of phenacetin, niflumic acid, and furosemide) was calculated.
(§6) The percentage of the IS ratio at 4 hours after the start of the reaction relative to that at 0 hours after the start of the reaction was used as a residual ratio to evaluate serum stability.

[4] = Serum stability test, monkey serum; format: in vitro ADME, cynomolgus monkey; conditions: male, residual ratio: IS ratio at 4 hours relative to 0 hours, 37° C.
Text: as §1, §2, §3, §4, §5, §6

[5] = Serum stability test, human serum; format: in vitro ADME; conditions: both sexes, residual ratio: IS ratio at 4 hours relative to 0 hours, 37° C.
Text: as §1, §2, §3, §4, §5, §6

[6] = target: Thrombospondin human platelet (Calbiochem, 605225) (human, UniProt P07996 19-1170); assay: cell-based or functional assay
Thrombospondin human platelet (Calbiochem, 605225), sequence (P07996 19-1170 limits assumed): as the sequence (P07996 19-1170) above

Molecule | IC50 [2] [nM] | blood flow AUC, % of vehicle group mean ([1]; 0.3 mg/kg) [%] | %, ischemia/nonischemia (blood flow on the last day of measurement) ([1]; 0.3 mg/kg) [%] | blood flow AUC, % of vehicle group mean ([1]; 1 mg/kg) [%] | %, ischemia/nonischemia (blood flow on the last day of measurement) ([1]; 1 mg/kg) [%] | further results
CC(=O)N[C@H]1[C@H]([C@H](O)[C@H](O)CO)O[C@](CO)(OC[C@H]2O[C@@H](OC3[C@@H](CO)C[C@H](O[C@@H]4[C@@H](OC[C@H]5OC(O[C@H]6[C@H](O)[C@@H](NC(C)=O)C(O[C@H]7[C@H](O)[C@@H](NC(C)=O)C(OCC(=O)NCCCC[C@H](NC(=O)CNC(=O)CNC(=O)CNC(=O)CNC(=O)[C@@H]8CSCC(=O)N[C@@H](Cc9ccc%10ccccc%10c9)C(=O)N[C@H](CCCNC(=N)N)C(=O)N[C@@H](CO)C(=O)NCC(=O)N[C@@H](CCNC(=N)N)C(=O)N[C@H](CC(N)=O)C(=O)N[C@@H](Cc9c[nH]c%10ccccc9%10)C(=O)N[C@@H](C(C)N)C(=O)N[C@H](CCCNC(=N)N)C(=O)N[C@@H](Cc9c[nH]c%10ccccc9%10)C(=O)N[C@@H](C9CCCC9)C(=O)N8)C(=O)NCCOCCOCCOCCOCCOCCOCCOCCOCCOCCOCCOCCOCCC(=O)NCCOCCOCCOCCOCCOCCOCCOCCOCCOCCOCCOCCOCCC(=O)N[C@H](CCCCNC(=O)CCN8C(=O)CC(C)C8=O)C(N)=O)O[C@@H]7CO)O[C@@H]6CO)[C@@H](O)[C@@H](O[C@H]6O[C@H](CO)[C@@H](O)[C@H](O)[C@@H]6O[C@@H]6O[C@H](CO)C(O[C@@H]7O[C@H](CO[C@]8(C(=O)O)C[C@H](O)[C@@H](NC(C)=O)[C@H]([C@H](O)[C@H](O)CO)O8)[C@H](O)[C@H](O)[C@H]7O)[C@H](O)[C@H]6NC(C)=O)[C@@H]5O)O[C@H](CO)[C@@H](O)[C@@H]4O)[C@H](NC(C)=O)[C@H]3O)[C@H](O)[C@@H](O)[C@H]2O)C[C@@H]1O (stereo partly drawn) [Conjugate-56] | – | 187.6 | 40.2 ± 5.6 | 318.4 | 74.8 ± 11.0 | –
COCCOCCOCCOCCOCCOCCOCCOCCOCCOCCOCC(=O)N[C@@H](CCCCNC(=O)[C@H](CC(=O)O)NC(=O)[C@H](CC(=O)O)NC(=O)CNC(=O)CNC(=O)CNC(=O)CNC(=O)[C@@H]1CSCC(=O)N[C@@H](Cc2ccc3ccccc3c2)C(=O)N[C@H](CCCNC(=N)N)C(=O)N[C@H]2CCSSCC[C@H](NC(=O)[C@H](Cc3c[nH]c4ccccc34)NC(=O)[C@@H](CC(=O)O)NC(=O)[C@H](CCCNC(=N)N)NC(=O)CNC2=O)C(=O)N[C@H](CCCNC(=N)N)C(=O)N[C@@H](Cc2c[nH]c3ccccc23)C(=O)N[C@@H](C2CCCC2)C(=O)N1)C(=O)NCCOCCOCCOCCOCCOCCOCCOCCOCCOCCOCCOCCOCCC(=O)NCCOCCOCCOCCOCCOCCOCCOCCOCCOCCOCCOCCOCCC(=O)N[C@@H](CCCCNC(=O)CCN1C(=O)CC(C)C1=O)C(N)=O (stereo partly drawn) [Conjugate-4] ({CH2CO}-[2Nal][dR][hCys]GR[dD]W[hCys][dR]W[Gly(cPent)]CGGGGDD-X1; disulfide 3-8; thioether N-12) | – | 263.9 | 54.5 ± 10.2 | 346.8 | 76.1 ± 11.2 | –
Conjugate-10 (other, disulfide I:3-I:8; not fully specified; reading uncertain; also: Lys22 maleimide side chain thioether-linked to Fc hinge Cys6 and Cys9 (Eu 226, 229), thioether at chain A 1 at chain A 12 to a chain's N-terminus) peptide: [2Nal]R[hCys]GRDW[hCys]RW[Gly(cPent)]CGSGSDD[KPEG][P12P][P12P]K(maleimide)-NH2 DKTHTCPPCPAPEAAGGPSVFLFPPKPKDTLMISRTPEVTCVVVDVSHEDPEVKFNWYVDGVEVHNAKTKPREEQYNSTYRVVSVLTVLHQDWLNGKEYKCKVSNKALAAPIEKTISKAKGQPREPQVYTLPPSREEMTKNQVSLTCLVKGFYPSDIAVEWESNGQPENNYKTTPPVLDSDGSFFLYSKLTVDKSRWQQGNVFSCSVMHEALHNHYTQKSLSLSPGK | – | – | – | – | – | IC50 for inhibition of cell adhesion (HUVEC to coated human TSP1) [6]: 12.8 nM

Second part, led by results:

IC50 [2] [nM] | Molecule | blood flow AUC, % of vehicle group mean ([1]; 0.3 mg/kg) [%] | %, ischemia/nonischemia (blood flow on the last day of measurement) ([1]; 0.3 mg/kg) [%] | blood flow AUC, % of vehicle group mean ([1]; 1 mg/kg) [%] | %, ischemia/nonischemia (blood flow on the last day of measurement) ([1]; 1 mg/kg) [%] | further results
12.6 | CC(C)(C)[C@@H]1NC(=O)[C@H](Cc2ccc3ccccc3c2)NC(=O)CSC[C@@H](C(N)=O)NC(=O)[C@H](C2CCCC2)NC(=O)[C@H](Cc2c[nH]c3ccccc23)NC(=O)[C@H](CCCNC(=N)N)NC(=O)[C@@H]2CCSSCC[C@H](NC1=O)C(=O)NCC(=O)N[C@@H](CCCNC(=N)N)C(=O)N[C@@H](CC(N)=O)C(=O)N[C@@H](Cc1c[nH]c3ccccc13)C(=O)N2 [Peptide-8] ({CH2CO}-[2Nal][Tle][hCys]GRNW[hCys]RW[Gly(cPent)]C-NH2; disulfide 3-8; thioether N-12) | – | – | – | – | –
12.6 | N=C(N)NCCC[C@@H]1NC(=O)[C@H](Cc2ccc3ccccc3c2)NC(=O)CSC[C@@H](C(N)=O)NC(=O)[C@H](C2CCCC2)NC(=O)[C@H](Cc2c[nH]c3ccccc23)NC(=O)[C@H](CCCNC(=N)N)NC(=O)[C@@H]2CCSSCC[C@H](NC1=O)C(=O)NCC(=O)N[C@@H](CCNC(=N)N)C(=O)N[C@@H](CC(N)=O)C(=O)N[C@@H](Cc1c[nH]c3ccccc13)C(=O)N2 [Peptide-1] ({CH2CO}-[2Nal]R[hCys]G[Agb]NW[hCys]RW[Gly(cPent)]C-NH2; disulfide 3-8; thioether N-12) | – | – | – | – | remaining at 4 h, 20 μM ([3]; male, BALB/c CrSlc, mouse, mouse serum, residual ratio: IS ratio at 4 hours relative to 0 hours, 20 μM, 37° C.): 101%; serum stability (in words) ([3]; statement covers mouse, monkey and human serum, 4 hours): high serum stability; also recorded: higher serum stability; remaining at 4 h, 20 μM [4]: 90.6%; remaining at 4 h, 20 μM [5]: 93.9%
